# Experimental data published in patent publication US20230277534A1 (Plexxikon Inc., priority 2011, published 2023).
# Tested on: COLO205 colon adenocarcinoma cells (B-Raf V600E mutation)
# Test: COLO205 cell growth inhibition (ATPlite)
# Format: cell-based
# Details: Homo sapiens, COLO 205, 72 h, 3 days
# Method: Compounds are assessed in a variety of cell based assays.
# On day 1, cells are counted, then centrifuged in a conical tube for 5 minutes at 1000 rpm.
# On day 2, compound at a maximum concentration of 5 mM is serially diluted 1:3 (e.g. 10 μL with 30 μL dimethyl sulfoxide) for a total of 8 point titration with DMSO as a control. A 1 μL aliquot of each dilution point and control is added to 249 μL growth media and 50 μL is added to a well containing cells, providing 10 μM compound at the maximum concentration point. The cells are incubated for 3 days at 37° C. in 5% CO2.
# ATPlite is added 25 μL to each well, shake for 2 minutes, and the cells are incubated at room temperature for 10 minutes, then luminescence is read on Safire reader. The measured luminescence correlates directly with cell number, such that the reading as a function of compound concentration is used to determine the IC50 value.
row,SMILES,IC50
1,"CC(C)CN(C)S(=O)(=O)Nc1cccc(C(=O)c2c[nH]c3ncc(I)cc23)c1F [Compound P-0070, 3-[2-fluoro-3-[[isobutyl(methyl)sulfamoyl]amino]benzoyl]-5-iodo-1H-pyrrolo[2,3-b]pyridine]",> 1 µM
2,"CCC(C)S(=O)(=O)Nc1cccc(C(=O)c2c[nH]c3ncc(-c4cnc(C5CC5)nc4)cc23)c1F (centres unmarked) [Compound P-0228, N-[3-[5-(2-cyclopropylpyrimidin-5-yl)-1H-pyrrolo[2,3-b]pyridine-3-carbonyl]-2-fluoro-phenyl]butane-2-sulfonamide]",< 1 µM

# Target: B-Raf V600E (Homo sapiens (Human), UniProt P15056, V600E)
# Sequence (P15056 whole entry V600E): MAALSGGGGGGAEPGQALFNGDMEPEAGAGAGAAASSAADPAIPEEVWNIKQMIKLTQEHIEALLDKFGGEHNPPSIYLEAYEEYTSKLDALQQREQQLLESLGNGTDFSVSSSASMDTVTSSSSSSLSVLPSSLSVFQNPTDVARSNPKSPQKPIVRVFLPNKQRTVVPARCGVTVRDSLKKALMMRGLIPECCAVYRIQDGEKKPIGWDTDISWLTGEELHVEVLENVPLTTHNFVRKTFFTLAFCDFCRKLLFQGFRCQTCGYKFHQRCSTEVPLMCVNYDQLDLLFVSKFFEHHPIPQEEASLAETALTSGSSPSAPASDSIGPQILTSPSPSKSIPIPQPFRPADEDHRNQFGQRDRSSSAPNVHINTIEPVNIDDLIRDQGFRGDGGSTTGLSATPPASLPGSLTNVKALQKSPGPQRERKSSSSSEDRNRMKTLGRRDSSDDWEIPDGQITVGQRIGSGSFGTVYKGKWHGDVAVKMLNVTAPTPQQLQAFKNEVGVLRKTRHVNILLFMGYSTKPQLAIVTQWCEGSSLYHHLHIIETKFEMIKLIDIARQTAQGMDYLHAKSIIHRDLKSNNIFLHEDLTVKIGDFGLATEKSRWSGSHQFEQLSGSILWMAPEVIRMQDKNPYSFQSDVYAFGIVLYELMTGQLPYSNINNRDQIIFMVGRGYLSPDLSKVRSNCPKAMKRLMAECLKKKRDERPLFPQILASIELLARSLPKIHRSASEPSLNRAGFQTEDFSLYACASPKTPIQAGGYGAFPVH
# Test: B-Raf V600E kinase biochemical activity assay (AlphaScreen, biotin-MEK1 substrate)
# Details: 100 μM ATP
# Method: Assays for biochemical and cell based activity are known in the art, for example, as described in PCT publication WO 2007/002433, the disclosure of which is hereby incorporated by reference as it relates to such assays. For example, the biochemical activity IC50 values are determined with respect to inhibition of B-Raf V600E kinase activity or p-Erk kinase activity, where inhibition of phosphorylation of a peptide substrate is measured as a function of compound concentration. Compounds to be tested are diluted in dimethyl sulfoxide to a concentration of 0.1 mM. These are serially diluted 15 μL into 30 μL of dimethyl sulfoxide seven times in 96 well plates for a total of 8 dilution points, and for each dilution point 1 μL is added to a well of an assay plate. Plates are prepared such that each well in a 384 well plate contains 1 μL of compound in 10 μL volume with 0.1 ng Raf enzyme (i.e. any of B-Raf, c-Raf-1 or B-Raf V600E, Upstate Biotechnology or prepared by methods known to one of skill in the art), 50 mM HEPES, pH 7.0, 50 mM NaCl, 2 mM MgCl2, 1 mM MnCl2, 0.01% Tween-20, 1 mM DTT, and 100 nM biotin-MEK1 as substrate. The reaction is started with addition of 10 μL of 200 μM ATP (i.e. final 100 μM ATP). After incubation of the kinase reaction for 45 minutes at room temperature, 5 μL/well of Stop Solution is added (25 mM Hepes pH 7.5, 100 mM EDTA, 0.01% BSA with donor beads (Streptavidin coated beads, Perkin Elmer), acceptor beads (Protein A coated, Perkin Elmer), and anti phosphor MEK1/2 antibody (CellSignal), each at final concentration 10 μg/mL). The plates are incubated for 3 hours at room temperature and read on Envision reader (Perkin Elmer). Phosphorylation of Mek1 results in binding of the anti-phosphor-MEK1/2antibody and association of the donor and acceptor beads such that signal correlates with kinase activity. The signal vs. compound concentration is used to determine the IC50.
row,SMILES,IC50
1,"CC(C)(O)c1ccc(-c2cnc3[nH]cc(C(=O)c4cccc(NS(=O)(=O)N5CCCC5)c4F)c3c2)cc1 [Compound P-0105, N-[2-fluoro-3-[5-[4-(1-hydroxy-1-methyl-ethyl)phenyl]-1H-pyrrolo[2,3-b]pyridine-3-carbonyl]phenyl]pyrrolidine-1-sulfonamide]",< 0.1 µM
2,"CCN(C)S(=O)(=O)Nc1cccc(C(=O)c2c[nH]c3ncc(-c4cnc(N5CCCC5)nc4)cc23)c1F [Compound P-0108, 3-[3-1[[ethyl(methyl)sulfamoyl]amino]-2-fluoro-benzoyl]-5-(2-pyrrolidin-1-ylpyrimidin-5-yl)-1H-pyrrolo[2,3-b]pyridine]",< 0.1 µM
3,"CCCNS(=O)(=O)Nc1cccc(C(=O)c2c[nH]c3ncc(C)cc23)c1F [Compound P-0223, [2-fluoro-3-(propylsulfamoylamino)phenyl]-(5-methyl-1H-pyrrolo[2,3-b]pyridin-3-yl)methanone]",> 0.1 µM
4,"O=C(c1cccc(NS(=O)(=O)N2CCCC2)c1F)c1c[nH]c2ncc(-c3cnc(NC4CC4)nc3)cc12 [Compound P-0232, N-[3-[5-[2-(cyclopropylamino)pyrimidin-5-yl]-1H-pyrrolo[2,3-b]pyridine-3-carbonyl]-2-fluoro-phenyl]pyrrolidine-1-sulfonamide]",< 0.1 µM
5,"CCOc1cnc(-c2cnc3[nH]cc(C(=O)c4c(F)ccc(NS(=O)(=O)N(C)C)c4F)c3c2)cn1 [Compound P-0244, 3-[3-(dimethylsulfamoylamino)-2,6-difluoro-benzoyl]-5-(5-ethoxypyrazin-2-yl)-1H-pyrrolo[2,3-b]pyridine]",< 0.1 µM
6,"CN(C)S(=O)(=O)Nc1cccc(C(=O)c2c[nH]c3ncc(-c4ccc(C(C)(C)C#N)cc4)cc23)c1F [Compound P-0245, 5-[4-(1-cyano-1-methyl-ethyl)phenyl]-3-[3-(dimethylsulfamoylamino)-2-fluoro-benzoyl]-1H-pyrrolo[2,3-b]pyridine]",< 0.1 µM
7,"COC(=O)C1(c2ccc(-c3cnc4[nH]cc(C(=O)c5cccc(NS(=O)(=O)N6CCCC6)c5F)c4c3)cc2)CC1 [Compound P-0254, methyl 1-[4-[3-[2-fluoro-3-(pyrrolidin-1-ylsulfonylamino)benzoyl]-1H-pyrrolo[2,3-b]pyridin-5-yl]phenyl]cyclopropanecarboxylate]",< 0.1 µM
8,"CN(C)S(=O)(=O)Nc1ccc(F)c(C(=O)c2c[nH]c3ncc(-c4ccc(C(C)(C)C#N)cc4)cc23)c1F [Compound P-0255, 5-[4-(1-cyano-1-methyl-ethyl)phenyl]-3-[3-(dimethylsulfamoylamino)-2,6-difluoro-benzoyl]-1H-pyrrolo[2,3-b]pyridine]",< 0.1 µM
9,"CCOC(=O)C1CCCN1S(=O)(=O)Nc1cccc(C(=O)c2c[nH]c3ncc(-c4cnc(OC)nc4)cc23)c1F (centres unmarked) [Compound P-0257, ethyl 1-[[2-fluoro-3-[5-(2-methoxypyrimidin-5-yl)-1H-pyrrolo[2,3-b]pyridine-3-carbonyl]phenyl]sulfamoyl]pyrrolidine-2-carboxylate]",> 0.1 µM
10,"CCN(C)S(=O)(=O)Nc1ccc(F)c(C(=O)c2c[nH]c3ncc(-c4cnc(N5CCN(C(=O)OC(C)(C)C)CC5)nc4)cc23)c1F [Compound P-0264, tert-butyl 4-[5-[3-[3-[[ethyl(methyl)sulfamoyl]amino]-2,6-difluoro-benzoyl]-1H-pyrrolo[2,3-b]pyridin-5-yl]pyrimidin-2-yl]piperazine-1-carboxylate]",< 0.1 µM
11,"O=C(c1c(F)ccc(NS(=O)(=O)N2CCCC2)c1F)c1c[nH]c2ncc(-c3cnc(N4CCOCC4)nc3)cc12 [Compound P-0266, N-[2,4-difluoro-3-[5-(2-morpholinopyrimidin-5-yl)-1H-pyrrolo[2,3-b]pyridine-3-carbonyl]phenyl]pyrrolidine-1-sulfonamide]",< 0.1 µM
12,"CC(=O)N(C)C1CCN(S(=O)(=O)Nc2cccc(C(=O)c3c[nH]c4ncc(-c5cnc(C6CC6)nc5)cc34)c2F)C1 (centres unmarked) [Compound P-0267, N-[1-[[3-[5-(2-cyclopropylpyrimidin-5-yl)-1H-pyrrolo[2,3-b]pyridine-3-carbonyl]-2-fluoro-phenyl]sulfamoyl]pyrrolidin-3-yl]-N-methyl-acetamide]",> 0.1 µM
13,"COc1ncc(-c2cnc3[nH]cc(C(=O)c4c(F)ccc(NS(=O)(=O)N5CCCC5)c4F)c3c2)s1 [Compound P-0270, N-[2,4-difluoro-3-[5-(2-methoxythiazol-5-yl)-1H-pyrrolo[2,3-b]pyridine-3-carbonyl]phenyl]pyrrolidine-1-sulfonamide]",< 0.1 µM
14,"CNC1CCN(S(=O)(=O)Nc2cccc(C(=O)c3c[nH]c4ncc(-c5cnc(C6CC6)nc5)cc34)c2F)C1 (centres unmarked) [Compound P-0272, N-[3-[5-(2-cyclopropylpyrimidin-5-yl)-1H-pyrrolo[2,3-b]pyridine-3-carbonyl]-2-fluoro-phenyl]-3-(methylamino)pyrrolidine-1-sulfonamide]",> 0.1 µM
15,"O=C(c1c(F)ccc(NS(=O)(=O)N2CCCC2)c1F)c1c[nH]c2ncc(-c3ccnc(OC4CCC4)c3)cc12 [Compound P-0286, N-[3-[5-[2-(cyclobutoxy)-4-pyridyl]-1H-pyrrolo[2,3-b]pyridine-3-carbonyl]-2,4-difluoro-phenyl]pyrrolidine-1-sulfonamide]",< 0.1 µM
16,"COC(=O)C(C)S(=O)(=O)Nc1cccc(C(=O)c2c[nH]c3ncc(-c4cnc(C5CC5)nc4)cc23)c1F (centres unmarked) [Compound P-0291, methyl 2-[[3-[5-(2-cyclopropylpyrimidin-5-yl)-1H-pyrrolo[2,3-b]pyridine-3-carbonyl]-2-fluoro-phenyl]sulfamoyl]propanoate]",> 0.1 µM
17,"O=C(c1c(F)ccc(NS(=O)(=O)N2CCCC2)c1F)c1c[nH]c2ncc(-c3cc(C(F)(F)F)ncn3)cc12 [Compound P-0294, N-[2,4-difluoro-3-[5-[6-(trifluoromethyl)pyrimidin-4-yl]-1H-pyrrolo[2,3-b]pyridine-3-carbonyl]phenyl]pyrrolidine-1-sulfonamide]",< 0.1 µM
18,"CCN(C)S(=O)(=O)Nc1ccc(F)c(C(=O)c2c[nH]c3ncc(-c4cccc(N(C)C)c4)cc23)c1F [Compound P-0302, 5-[3-(dimethylamino)phenyl]-3-[3-[[ethyl(methyl)sulfamoyl]amino]-2,6-difluoro-benzoyl]-1H-pyrrolo[2,3-b]pyridine]",< 0.1 µM
19,"CCN(C)S(=O)(=O)Nc1ccc(F)c(C(=O)c2c[nH]c3ncc(-c4ccc(C(=O)NC5CC5)nc4)cc23)c1F [Compound P-0312, N-cyclopropyl-5-[3-[3-[[ethyl(methyl)sulfamoyl]amino]-2,6-difluoro-benzoyl]-1H-pyrrolo[2,3-b]pyridin-5-yl]pyridine-2-carboxamide]",< 0.1 µM
20,"CN1CCN(c2cc(-c3cnc4[nH]cc(C(=O)c5c(F)ccc(NS(=O)(=O)N6CCCC6)c5F)c4c3)ncn2)CC1 [Compound P-0319, N-[2,4-difluoro-3-[5-[6-(4-methylpiperazin-1-yl)pyrimidin-4-yl]-1H-pyrrolo[2,3-b]pyridine-3-carbonyl]phenyl]pyrrolidine-1-sulfonamide]",< 0.1 µM
21,"C[C@H]1CCN(S(=O)(=O)Nc2ccc(F)c(C(=O)c3c[nH]c4ncc(-c5cnc(C6CC6)nc5)cc34)c2F)C1 [Compound P-0320, (3S)—N-[3-[5-(2-cyclopropylpyrimidin-5-yl)-1H-pyrrolo[2,3-b]pyridine-3-carbonyl]-2,4-difluoro-phenyl]-3-methyl-pyrrolidine-1-sulfonamide]",> 0.1 µM
